From US20140271734A1, “BILE ACID RECYCLING INHIBITORS FOR TREATMENT OF BARRETT'S ESOPHAGUS AND GASTROESOPHAGEAL REFLUX DISEASE” (LUMENA PHARMACEUTICALS, INC., priority 2013, published 2014)
Like-named read-outs stand apart in the source and are kept apart here. Marks after values point to notes of the source that are not given here.

What was measured:
[1] = Pharmacokinetics of LUM001 after oral gavage in rats; type: in vivo; details: both sexes, Sprague Dawley, rat, plasma; for bioavailability: read-out: BA (bioavailability); for AUC(0-t): read-out: AUC(0-8 h)
Method: Groups of fasted Sprague Dawley rats (n=6/sex/group) were administered LUM001 as a single oral solution dose of either 1, 5 or 30 mg LUM001 free form/kg. The dose of 5 mg LUM001 free form/kg was also administered to rats in a fed state to evaluate the effect of food on plasma concentrations of LUM001 free form. Since LUM001 is a chloride salt, 105% of the amount of LUM001 is required to deliver the stated dose of the free form. The oral dose was delivered to the rat in Tween 80Milli-Q water (0.2% Tween, v/v) and was prepared on the day of dosing.
Blood samples of approximately 1 mL (n=2/sex/timepoint/treatment group) were collected by retro-orbital bleed into chilled tubes containing heparin at timepoints 0 (predose), 0.25, 0.5, 1, 1.5, 2, 3, 5 and 8 hours. The plasma samples were prepared by centrifugation of blood within 30 minutes after sample collection. All samples were stored at −20° C.±5° C. until analysis to study the relative exposures of LUM001 free form after oral solution dosing. The concentration of LUM001 free form in plasma were determined using an LCMSMS method. The assay sensitivity was 2.38 ng/mL.
Means and standard errors of the means (SEM) were calculated for plasma concentrations at each time point. Mean values are significant to three figures and SEM values are significant to the same decimal place as the corresponding mean. Concentration values less than the assay sensitivity (2.38 ng LUM001 free form/mL) were reported as zero. The area under the plasma concentration-time curve (AUC) was calculated from time 0 to 8 hours using a non-compartmental model in WinNonlin (1). The bioavailability (% BA) of LUM001 after oral administration of LUM001 was calculated according to the equation below:
% BA=[AUC oral (0-8)/AUC IV(0-8)/Dose oral/Dose IV]×100.

[2] = test system: serum total bile acid (SBA); test: Time to onset of activity of LUM001 on postprandial serum bile acids in dogs; type: in vivo, beagle dogs; details: for Serum bile acids, mean: fed at 0 min
Method: LUM001 was dissolved in water at concentrations that required the administration of 0.2 ml/kg of solution. Solutions were placed into gelatin capsules, Torpac Inc., size 13 Batch 594, East Hanover N.J., and administered orally.
(§1) Male beagle dogs were obtained from Covance Research Products, Cumberland Va. or Marshall Farms USA, Inc., North Rose N.Y. A total of 20 dogs, 1 to 5 years old, 6.8 to 15.6 kg body weight, were used in these experiments. The dogs were conditioned to a 12 hour light/dark cycle and maintained on a feeding restriction of 1 hour per day access to food (Richman Standard Certified Canine Diet #5007, PMI Nutrition, Inc., St. Louis Mo.) from 7 to 8 AM. They were trained to eat a special meal promptly within 20 minutes when presented (1 can. 397 g, Evanger's 100% Beef for Dogs, Evanger's Dog and Cat Food Co., Inc., Wheeling Ill., mixed with 50 g of sharp cheddar cheese.).
(§2) SBA was measured by an enzymatic assay. SBA values are expressed as μg of total bile acids/ml of serum.
To estimate the details of this plateau, 6 dogs were given a test meal and blood samples for SBA measurement were collected at −30, 0, 30, 60, 65, 70, 80, 90, 120, 180, 240, 360, 480, 720, 1410 and 1440 minutes from the time of feeding. Any remaining food was removed 20 min after it was first presented to the dogs. To establish a method for extending the elevated plateau of SBA, 6 dogs were given the meal at 0 hr and an additional ½ size meal again 4 hr after their first meal. Blood samples were taken at 0, 1, 2, 3, 4, 4.5, 6, 7 and 8 hr. The curves for SBA level vs time obtained in these experiments were used as references for determining blood sampling times in experiments with LUM001. Wherever possible, experimental design permitting, in experiments with test compound, each dog served as its own simultaneous control, and the mean 1 hr SBA value served as the reference to which all other mean values were compared.
LUM001 was administered at 0, 0.01, 0.05, 0.2 and 1 mg/kg, p.o. to dogs, n=6, 1 hr after feeding the standard experimental meal. Blood samples for SBA measurement were taken at −30, 0, 30, 60, 65, 70, 80, 90, 120 and 180 minutes from the time of feeding. Each dog served as its own control, and mean SBA levels were compared to the mean SBA level at 60 minutes.

[3] = test system: serum total bile acid (SBA); test: Duration of action of LUM001 on dog SBA, Method 1 (two meals); type: in vivo, beagle dogs; details: 0.2 mg/kg p.o. at 1 hr; full meal 0 hr, half meal 4 hr; 4.5 hr
Method: as §1, §2
In dogs a single experimental meal produces a postprandial rise in SBA that is elevated to a peak at 1 hour after feeding and constant for an additional 3 hours. Previous experiments (2) indicate that LUM001 remains active for more than 4.5 hours. To measure the duration of action of an ASBT inhibitor using postprandial SBA levels requires that in the control situation the SBA levels remain elevated and constant for the entire period of compound action, or that the compound be administered long before the postprandial rise occurs, and remain active in the empty digestive system for long periods before feeding. […]

[4] = 5 mg/kg, single oral gavage 5 mg/kg free form, fasted
[5] = 5 mg/kg, single oral gavage 5 mg/kg free form, fed
[6] = 30 mg/kg, single oral gavage 30 mg/kg free form, fasted

In the case of `CCCCC1(CCCC)CS(=O)(=O)c2ccc(N(C)C)cc2[C@@H](c2ccc(OCc3ccc(C[N+]45CCN(CC4)CC5)cc3)cc2)[C@H]1O` [LUM001], the bioavailability ([1]; 1 mg/kg, single oral gavage 1 mg/kg free form, fasted) was < 0.1%, the Cmax [1, 4] was 2.45 ng/mL and the Tmax [1, 4] was 60 min. It also gave an AUC(0-t) [1, 4] of 6.58 ng·h/mL, a bioavailability [1, 4] of 0.1% and a Cmax [1, 5] of 3.58 ng/mL. The Tmax [1, 5] was 15 min, the AUC(0-t) [1, 5] was 12.6 ng·h/mL and the bioavailability [1, 5] was 0.2%. The Cmax [1, 6] was 5.43 ng/mL, the Tmax [1, 6] was 30 min and the AUC(0-t) [1, 6] was 4.16 ng·h/mL. For the same compound, the bioavailability [1, 6] was < 0.1%, the “Time to significantly lowered SBA levels after dosing” value ([2]; 0.05 mg/kg orally 1 hour after feeding) was 1 to 2 h and the “Serum bile acids, mean” value ([2]; 0.05 mg/kg p.o. at 60 min, 120 min) was 6.5* μg/ml. For the same compound, the “Serum bile acids, mean” value ([2]; 0.05 mg/kg p.o. at 60 min, −30 min) was 1.4 µg/mL, the “Serum bile acids, mean” value ([2]; 0.2 mg/kg p.o. at 60 min, 30 min) was 9.1 µg/mL and the “Onset time to significant SBA lowering” value ([2]; 1 mg/kg vs ED50 dose 0.2 mg/kg) was “did not shorten the onset time”. For the same compound, the “Threshold dose, dog SBA model” value ([2]; administered orally 1 hour after feeding) was 0.05 mg/kg and the “Serum Bile Acid, mean” value [3] was 2.5* μg/ml.
